The text below walks through data of patent publication US7179832B2, “Glycogen synthase kinase 3β inhibitor, composition and process for the preparation thereof” (Crystalgenomics, Inc., priority 2003, dated 2007).

Sequence of GSK-3β (P49841 whole entry, the tested form may be a part): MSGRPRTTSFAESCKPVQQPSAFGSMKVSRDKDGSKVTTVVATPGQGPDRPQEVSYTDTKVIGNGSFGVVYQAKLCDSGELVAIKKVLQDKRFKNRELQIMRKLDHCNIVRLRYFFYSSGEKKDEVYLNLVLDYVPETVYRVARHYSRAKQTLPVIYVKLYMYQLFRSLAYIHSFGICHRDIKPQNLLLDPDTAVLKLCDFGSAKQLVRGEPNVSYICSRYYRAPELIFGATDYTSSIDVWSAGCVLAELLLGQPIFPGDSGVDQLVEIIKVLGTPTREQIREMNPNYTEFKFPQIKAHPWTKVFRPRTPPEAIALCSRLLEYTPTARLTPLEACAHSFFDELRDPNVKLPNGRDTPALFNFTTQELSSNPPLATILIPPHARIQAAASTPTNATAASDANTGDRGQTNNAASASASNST

The first test addresses GSK-3β (Homo sapiens, UniProt P49841). As to the kind of experiment: Assay for GSK-3β inhibiting activity (32P-ATP, phospho-CREB peptide substrate, filter paper, CPM). As to conditions: GSK-3β inhibiting activity; 100 nM GSK-3β protein, 100 μM phospho-CREB peptide, 100 μM ATP, 30° C. for 1 hour; read-out: IC50. Type of test: biochemical. The method, then: Assay for GSK-3β inhibiting activity
First, PCR (polymerase chain reaction) was carried out using human DNA as a template as well as primers which were designed to correspond to the 3′- and 5′ ends of the polynucleotide coding human GSK-3β gene (Genbank Accession No.: L33801). The BamH1/XhoI fragment of the amplified PCR product thus obtained was inserted into the pGex vector between the BamH1 and XhoI sites, and the vector obtained was transformed into E. coli BL21(DE3). The transformed cells thus obtained was incubated in […] (1% Bacto-trypton, 0.5% yeast extract, 1% NaCl) containing ampicillin ([…]) until the optical density at 600 nm reached about 0.5. The cultured mixture was cooled to 18° C. and isopropyl β-D-thiogalacto-pyranoside (IPTG) was added thereto to a final concentration of 0.5 mM. After 16 hours, the resultant was centrifuged at 10,000×g for 10 min, the collected cells were suspended in a buffer solution (30 mM Tris-HCl (pH 7.5), 100 mM NaCl, 5% glycerol, 2 mM DTT) and the cells were disrupted using Sonic Dismembrator (Fisher, U.S.A.) in a ice bath. The resulting solution was centrifuged at 16,000 rpm for 30 minutes. […] The purified GSK-3β protein was diluted in a buffer solution (20 mM HEPES (pH 7.5), 5% glycerol, 2 mM DTT) to a final concentration of 50 mM NaCl and the resulting solution was subjected to mono S column chromatography (eluent: linear gradient from 0M to 1M NaCl buffer) using mono S column (Pharmacia Biotech, U.S.A.) equilibrated in the same buffer solution to obtain GSK-3β protein.
The reaction was stopped by adding 5 μl of 5% phosphoric acid to 25 μl of the resulting solution. The resulting mixture was centrifuged at 15,000 rpm for 10 min, 20 μl of the supernatant was added dropwise to Whatman p81 filter paper, and then, the resulting filter paper was washed with 0.5% phosphate buffer for 10 min. The filter paper was further washed 3 times and the enzymatic activity was determined by examining the extent of phospho-CREB peptide phosphorylation which is represented by the unit of count per minute (CPM), measured with a β-counter (Packard, USA).
The GSK-3β inhibiting activity was then calculated in accordance with the following equation:
[formula] wherein the blank represents a value obtained without the use of the enzyme and the compound of the present invention, and the control, in the absence of the compound of the present invention.
Take `CN(C)CC(=O)Nc1ccc(CCNC(=O)c2ccc(O)c3[nH]c(-c4ccc(F)cc4)nc23)cc1` [Compound 129]: the half-maximal inhibitory concentration (IC50) is 0.12 µM.

Regarding `CCN(CC)CC(=O)Nc1ccc(CCNC(=O)c2ccc(O)c3[nH]c(-c4ccc(F)cc4)nc23)cc1` [Compound 130], the IC50 is 0.33 µM.

On to `Nc1ccc(CCNC(=O)c2ccc(O)c3[nH]c(-c4ccc(F)cc4)nc23)cc1` [Compound 131], for which the 50% inhibitory concentration (IC50) turned out to be 0.17 µM.

Take `O=C(NCCc1ccc(N2CCOCC2)cc1)c1ccc(O)c2[nH]c(-c3ccc(F)cc3)nc12` [Compound 132]: the IC50 was determined as 0.19 µM.

In the case of `CN(C)c1ccc(CCNC(=O)c2ccc(O)c3[nH]c(-c4ccc(F)cc4)nc23)cc1` [Compound 135], the IC50 was more than 1 µM.

Consider `O=C(NCCc1ccc(OCCN2CCOCC2)cc1)c1ccc(O)c2[nH]c(-c3ccc(F)cc3)nc12` [Compound 136], for which the IC50 came to 0.24 µM.

On to `O=C(NCCc1ccccc1O)c1ccc(O)c2[nH]c(-c3ccc(F)cc3)nc12` [Compound 137], for which the IC50 was determined as 0.005 µM.

`COc1ccccc1CCNC(=O)c1ccc(O)c2[nH]c(-c3ccc(F)cc3)nc12` [Compound 138]: the IC50 was more than 1 µM.

Regarding `O=C(NCCc1cccc(Br)c1)c1ccc(O)c2[nH]c(-c3ccc(F)cc3)nc12` [Compound 139], the IC50 is 0.12 µM.

Take `CS(=O)(=O)Nc1ccc(CCNC(=O)c2ccc(O)c3nc(-c4ccc(F)cc4F)[nH]c23)cc1` [Compound 140]: the IC50 was more than 1 µM.

Consider `Cc1ccc(S(=O)(=O)Nc2ccc(CCNC(=O)c3ccc(O)c4[nH]c(-c5ccc(F)cc5F)nc34)cc2)cc1` [Compound 141], for which the concentration for half-maximal inhibition (IC50) is 0.043 µM.

On to `CCS(=O)(=O)Nc1ccc(CCNC(=O)c2ccc(O)c3[nH]c(-c4ccc(F)cc4F)nc23)cc1` [Compound 142], for which the half-maximal inhibitory concentration (IC50) worked out at 0.001 µM.

For the compound `CS(=O)(=O)Nc1ccc(CCNC(=O)c2ccc(O)c3[nH]c(-c4ccc(F)cc4Cl)nc23)cc1` [Compound 143], the 50% inhibitory concentration (IC50) worked out at 0.002 µM.

On to `Cc1ccc(S(=O)(=O)Nc2ccc(CCNC(=O)c3ccc(O)c4[nH]c(-c5ccc(F)cc5Cl)nc34)cc2)cc1` [Compound 144], for which the half-maximal inhibitory concentration (IC50) turned out to be 0.006 µM.

As to `CC(=O)Nc1ccc(CCNC(=O)c2ccc(O)c3[nH]c(-c4ccc(F)cc4Cl)nc23)cc1` [Compound 146], the half-inhibitory concentration (IC50) was 0.07 µM.

For the compound `O=C(NCCN1CCOCC1)c1ccc(O)c2[nH]c(-c3ccc(F)cc3Cl)nc12` [Compound 147], the IC50 was found to be 0.21 µM.

Consider `CN1CCN(CCNC(=O)c2ccc(O)c3[nH]c(-c4ccc(F)cc4Cl)nc23)CC1` [Compound 148], for which the IC50 was more than 1 µM.

As for `CCCCC(=O)Nc1ccc(CCNC(=O)c2ccc(O)c3[nH]c(-c4ccc(F)cc4Cl)nc23)cc1` [Compound 149], the concentration for half-maximal inhibition (IC50) is 0.14 µM.

On to `O=C(NCCc1ccc(O)cc1)c1ccc(O)c2[nH]c(-c3ccc(F)cc3Cl)nc12` [Compound 150], for which the concentration for half-maximal inhibition (IC50) worked out at 0.06 µM.

`CS(=O)(=O)Nc1ccc(NCCNC(=O)c2ccc(O)c3[nH]c(-c4ccc(F)cc4Cl)nc23)nc1` [Compound 152]: the concentration for half-maximal inhibition (IC50) amounted to 0.24 µM.

Consider `Cc1ccc(S(=O)(=O)Nc2ccc(NCCNC(=O)c3ccc(O)c4[nH]c(-c5ccc(F)cc5Cl)nc34)nc2)cc1` [Compound 153], for which the half-maximal inhibitory concentration (IC50) stood at 0.05 µM.

Regarding `O=C(NCCc1c[nH]cn1)c1ccc(O)c2[nH]c(-c3ccc(F)cc3Cl)nc12` [Compound 154], the concentration for half-maximal inhibition (IC50) is more than 1 µM.

For the compound `CN1CCN(CC(=O)Nc2ccc(CCNC(=O)c3ccc(O)c4[nH]c(-c5ccc(F)cc5Cl)nc34)cc2)CC1` [Compound 156], the half-maximal inhibitory concentration (IC50) came out at 0.28 µM.

For the compound `CCN1CCN(CC(=O)Nc2ccc(CCNC(=O)c3ccc(O)c4[nH]c(-c5ccc(F)cc5Cl)nc34)cc2)CC1` [Compound 157], the IC50 was 0.49 µM.

For `CN(C)CC(=O)Nc1ccc(CCNC(=O)c2ccc(O)c3[nH]c(-c4ccc(F)cc4Cl)nc23)cc1` [Compound 158], the concentration for half-maximal inhibition (IC50) was found to be 0.23 µM.

As for `CCN(CC)CC(=O)Nc1ccc(CCNC(=O)c2ccc(O)c3[nH]c(-c4ccc(F)cc4Cl)nc23)cc1` [Compound 159], the half-inhibitory concentration (IC50) is 0.68 µM.

As to `Cc1ccc(S(=O)(=O)Nc2ccc(CCNC(=O)c3ccc(O)c4[nH]c(-c5ccc(F)c(Cl)c5)nc34)cc2)cc1` [Compound 160], the IC50 was more than 1 µM.

With `CS(=O)(=O)Nc1ccc(CCNC(=O)c2ccc(O)c3[nH]c(-c4ccc(F)c(Cl)c4)nc23)cc1` [Compound 161], the IC50 stood at 0.09 µM.

`CCCCNC(=O)c1ccc(O)c2[nH]c(-c3ccccc3)nc12` [Compound 162]: the IC50 amounted to 0.24 µM.

Take `NCCCNC(=O)c1ccc(O)c2[nH]c(-c3ccccc3)nc12` [Compound 163]: the half-inhibitory concentration (IC50) is more than 1 µM.

On to `O=C(NCCCN1CCCC1=O)c1ccc(O)c2[nH]c(-c3ccccc3)nc12` [Compound 164], for which the IC50 is 0.84 µM.

Turning to `O=C(NCCCn1ccnc1)c1ccc(O)c2[nH]c(-c3ccccc3)nc12` [Compound 165], the IC50 turned out to be 0.08 µM.

With `O=C(NCCCN1CCOCC1)c1ccc(O)c2[nH]c(-c3ccccc3)nc12` [Compound 166], the IC50 is more than 1 µM.

With `Cc1nccn1CCCNC(=O)c1ccc(O)c2[nH]c(-c3ccccc3)nc12` [Compound 167], the IC50 amounted to 0.1 µM.

In the case of `CCCCNC(=O)c1ccc(O)c2[nH]c(-c3ccc(Cl)cc3)nc12` [Compound 168], the IC50 is more than 1 µM.

On to `O=C(NCCCN1CCCC1=O)c1ccc(O)c2[nH]c(-c3ccc(Cl)cc3)nc12` [Compound 169], for which the IC50 was more than 1 µM.

Consider `O=C(NCCCn1ccnc1)c1ccc(O)c2[nH]c(-c3ccc(Cl)cc3)nc12` [Compound 170], for which the 50% inhibitory concentration (IC50) came to 0.19 µM.

Turning to `O=C(NCCCN1CCOCC1)c1ccc(O)c2[nH]c(-c3ccc(Cl)cc3)nc12` [Compound 171], the half-maximal inhibitory concentration (IC50) was more than 1 µM.

As to `O=C(NCCCn1ccnc1-c1ccccc1)c1ccc(O)c2[nH]c(-c3ccc(Cl)cc3)nc12` [Compound 172], the half-maximal inhibitory concentration (IC50) amounted to 0.8 µM.

Consider `Cc1cn(CCCNC(=O)c2ccc(O)c3[nH]c(-c4ccc(Cl)cc4)nc23)cn1` [Compound 173], for which the IC50 was 0.1 µM.

Take `O=C(NCCCn1cnc(Cl)c1Cl)c1ccc(O)c2[nH]c(-c3ccc(Cl)cc3)nc12` [Compound 174]: the IC50 stood at 0.04 µM.

For `CCCCNC(=O)c1ccc(O)c2[nH]c(-c3ccc(Cl)cc3Cl)nc12` [Compound 176], the IC50 worked out at 0.45 µM.

As for `O=C(NCCCN1CCCC1=O)c1ccc(O)c2[nH]c(-c3ccc(Cl)cc3Cl)nc12` [Compound 177], the 50% inhibitory concentration (IC50) stood at 0.2 µM.

Turning to `O=C(NCCCn1ccnc1)c1ccc(O)c2[nH]c(-c3ccc(Cl)cc3Cl)nc12` [Compound 178], the half-inhibitory concentration (IC50) was found to be 0.04 µM.

Regarding `O=C(NCCCN1CCOCC1)c1ccc(O)c2[nH]c(-c3ccc(Cl)cc3Cl)nc12` [Compound 179], the IC50 was more than 1 µM.

For `O=C(NCCCn1ccnc1-c1ccccc1)c1ccc(O)c2[nH]c(-c3ccc(Cl)cc3Cl)nc12` [Compound 180], the IC50 is 0.21 µM.

Turning to `Cc1cn(CCCNC(=O)c2ccc(O)c3[nH]c(-c4ccc(Cl)cc4Cl)nc23)cn1` [Compound 181], the concentration for half-maximal inhibition (IC50) is 0.03 µM.

In the case of `O=C(NCCCn1cnc(Cl)c1Cl)c1ccc(O)c2nc(-c3ccc(Cl)cc3Cl)[nH]c12` [Compound 182], the concentration for half-maximal inhibition (IC50) stood at 0.008 µM.

Staying with this test, now noted: IC50 (μM).
The compound `O=C(CN1CCOCC1)Nc1ccc(CCNC(=O)c2ccc(O)c3nc(-c4ccc(F)cc4)[nH]c23)cc1` [Compound 134] gave an IC50 of 0.04 µM.

`CCS(=O)(=O)Nc1ccc(CCNC(=O)c2ccc(O)c3nc(-c4ccc(F)cc4Cl)[nH]c23)cc1` [Compound 145] displayed an IC50 of 0.002 µM.

As a reminder, the IC50 is the concentration at which inhibition is half-maximal.
